Reference: patent US8623661B2, “Iron chelating agent, method for producing same, method for determining amount of iron ions and method for trapping iron ions” (National University Corporation Asahikawa Medical College, priority 2008, dated 2014)

Key:
[1] = system: iron nitrilotriacetate complex (Fe-NTA); assay: Evaluation C: chelating ability in MOPS/acetonitrile solvent, Fe-NTA solution; format: binding
Experimental: Evaluation was carried out by the following evaluation method C as to whether or not the iron chelating agent according to Examples 1 to 3 had chelating ability with iron in 3-morpholinopropanesulfonic acid (C7H15NO4S;MOPS) and acetonitrile solution as solvents used in high performance liquid chromatography (HPLC).
2.09 g of morpholinopropanesulfonic acid (C7H15NO4S; FW=209.26, Code 341-01801, Lot PX013, manufactured by Dojindo/Wako Corporation) was added to a 100 mL Erlenmeyer flask, 80 mL of ultrapure water (pure water produced by an ultrapure water production system manufactured by Millipore Corporation (Milli-Q); “Milli-Q water”) was added thereto and dissolved [pH 4.15 (24.4° C.)]. To this solution, 1N sodium hydroxide solution (1 mol/1 sodium hydroxide solution, Code 192-02175, Lot SEP7274, manufactured by Wako Pure Chemicals Industries) was added in 100 μl portions, the pH was adjusted to 7.0 and further Milli-Q water was made up to 100 mL in a measuring cylinder, whereby 100 mL of MOPS solution (pH 6.99) was prepared.
An iron chelating agent solution having an iron chelating agent concentration of 50 mM was prepared with respect to the iron chelating agent according to Examples 1 to 3, in the same manner as the preparation method of the iron chelating solution in evaluation A of the iron chelating agent.
Further, 100 mM of MOPS solution (pH6.99) prepared by the preparation method of the MOPS solution was used.
Furthermore, a stock solution of acetonitrile (C2H3N, FW=41.05, Code 347-06641, Lot WPI96, manufactured by Dojindo/Wako corporation) was used.
13.8 mL of Milli-Q water was taken in a 50 mL conical tube, 1.2 mL of each of the iron chelating agent solutions (Fe-Ser•Na (50 mM), Fe-His•Na (50 mM), Fe-Glu•Na (50 mM)) according to the iron chelating agents of Examples 1 to 3 was added, 1.0 mL of 100 mM MOPS solution was added thereto, and a further 4.0 mL of acetonitrile solution was added to produce an iron chelating solution using MOPS. The iron chelating agent solutions using MOPS and iron chelating agent according to Examples 1 to 3 were defined respectively as Fe-Ser•Na (MOPS solution)” (iron chelating agent according to
Example 1), “Fe-His•Na (MOPS solution)” (iron chelating agent according to Example 2), and “Fe-Glu•Na(MOPS solution)” (iron chelating agent according to Example 3).
Further, iron nitrilotriacetate complex solution (“Fe-NTA solution (20 mM)”) having a concentration of iron ions of 20 mM and iron nitrilotriacetate complex solution (“Fe-NTA solution (2 mM)”) having a concentration of iron ions of 2 mM were prepared, in the same manner as the preparation method of iron nitrilotriacetate complex solution in evaluation B of the iron chelating agent.
Further, Fe-NTA solution (20 mM) was added to and mixed with each of the iron chelating agent solutions [Fe-Ser•Na (MOPS solution), Fe-His•Na (MOPS solution), Fe-Glu•Na (MOPS solution)] using MOPS. […] Further, Fe-NTA solution (2 mM) was added and mixed thereto as described above.

[2] = system: iron citrate complex ammonium salt (FAC); assay: Evaluation A: chelating ability with iron, absorbance after adding chelating agent to iron citrate complex ammonium salt (FAC) solution; format: binding; settings: for [B] absorbance after addition of iron chelating agent / [B]-[A]: 470 nm; for [B]-[A]: minus blank
Experimental: Evaluation was carried out by the following evaluation method A as to whether the iron chelating agent according to Example 1 had chelating ability with iron.
335 mg of the iron chelating agent (MW:209.2) according to Example 1 was added to a 50 mL conical tube, 15 mL of Dulbecco's phosphate buffered saline (pH 7.2;1×D-PBS) was added thereto, 70 mg of sodium hydroxide (MW:40.0) crystal was added thereto, followed by vigorously stirring (shaking) for 10 minutes, and centrifugation (1000 rpm, flashing) was carried out before the lid was opened. Then, 16.75 mL of 1×D-PBS (pH 7.2) was added thereto, and an iron chelating agent solution was prepared having a total amount of 31.75 mL.
Further, 1×D-PBS (pH 7.2) was added to FAC solution (20 mM) to prepare an iron citrate complex ammonium salt solution having a concentration of iron ions of 2 mM (“FAC solution (2 mM)”).
Iron citrate complex ammonium salt solution [FAC solution (20 mM), FAC solution (2 mM)]”, and 1×D-PBS (pH 7.2) were mixed at the ratios shown in Tables 1 to 2, the absorbance of the mixture (wavelength 470 nm) was measured by using a spectrophotometer (trade name “NanoDrop ND-1000 Full-spectrum UV/Vis Spectrophotometer”, manufactured by SCRUM Corporation, UV-Vis Module, Measure), and the absorbance of blank ([A] in Tables 1 to 2) was determined. Then, 158 μL of Fe-Ser•Na (50 mM) was added to the mixture, the absorbance (wavelength 470 nm) was measured as described above, and the absorbance after addition of iron chelating agent according to Examples ([B] in Tables 1 to 2) was determined.

[3] = FAC solution (2 mM) 0 μl + 1xD-PBS 160 μl + Fe-Ser•Na (50 mM) 158 μl
[4] = FAC solution (2 mM) 10 μl + 1xD-PBS 150 μl + Fe-Ser•Na (50 mM) 158 μl
[5] = FAC solution (2 mM) 20 μl + 1xD-PBS 140 μl + Fe-Ser•Na (50 mM) 158 μl
[6] = FAC solution (2 mM) 40 μl + 1xD-PBS 120 μl + Fe-Ser•Na (50 mM) 158 μl
[7] = FAC solution (2 mM) 80 μl + 1xD-PBS 80 μl + Fe-Ser•Na (50 mM) 158 μl
[8] = FAC solution (2 mM) 160 μl + 1xD-PBS 0 μl + Fe-Ser•Na (50 mM) 158 μl
[9] = FAC solution (20 mM) 0 μl + 1xD-PBS 160 μl + Fe-Ser•Na (50 mM) 158 μl
[10] = FAC solution (20 mM) 10 μl + 1xD-PBS 150 μl + Fe-Ser•Na (50 mM) 158 μl
[11] = FAC solution (20 mM) 20 μl + 1xD-PBS 140 μl + Fe-Ser•Na (50 mM) 158 μl
[12] = FAC solution (20 mM) 40 μl + 1xD-PBS 120 μl + Fe-Ser•Na (50 mM) 158 μl
[13] = FAC solution (20 mM) 80 μl + 1xD-PBS 80 μl + Fe-Ser•Na (50 mM) 158 μl
[14] = FAC solution (20 mM) 160 μl + 1xD-PBS 0 μl + Fe-Ser•Na (50 mM) 158 μl

SMILES: O=C(O)C(CO)NCc1ccccc1O (stereo not shown) [Example 1, o-[(1-carboxy-2-hydroxyethyl)-amino-methyl]-phenol]
- colour of the solution after mixing ([1]; Fe-NTA solution (2 mM) added to chelating agent MOPS solution (MOPS, acetonitrile)): dark brown-colored
- colour of the solution after mixing ([1]; Fe-NTA solution (20 mM) added to chelating agent MOPS solution (MOPS, acetonitrile)): dark brown-colored
- [B] absorbance after addition of iron chelating agent [2, 3]: 0.015
- [B]-[A] [2, 3]: 0.012
- [B] absorbance after addition of iron chelating agent [2, 4]: 0.027
- [B]-[A] [2, 4]: 0.023
- [B] absorbance after addition of iron chelating agent [2, 5]: 0.040
- [B]-[A] [2, 5]: 0.035
- [B] absorbance after addition of iron chelating agent [2, 6]: 0.055
- [B]-[A] [2, 6]: 0.046
- [B] absorbance after addition of iron chelating agent [2, 7]: 0.104
- [B]-[A] [2, 7]: 0.096
- [B] absorbance after addition of iron chelating agent [2, 8]: 1.181
- [B]-[A] [2, 8]: 0.169
- [B] absorbance after addition of iron chelating agent [2, 9]: 0.010
- [B]-[A] [2, 9]: 0.010
- [B] absorbance after addition of iron chelating agent [2, 10]: 0.109
- [B]-[A] [2, 10]: 0.104
- [B] absorbance after addition of iron chelating agent [2, 11]: 0.208
- [B]-[A] [2, 11]: 0.199
- [B] absorbance after addition of iron chelating agent [2, 12]: 0.405
- [B]-[A] [2, 12]: 0.390
- [B] absorbance after addition of iron chelating agent [2, 13]: 0.800
- [B]-[A] [2, 13]: 0.771
- [B] absorbance after addition of iron chelating agent [2, 14]: 1.368
- [B]-[A] [2, 14]: 1.311
- capture of iron ions from the iron citrate complex ([2]; conclusion from Tables 1 to 2): iron ions can be captured
- chelating ability with iron ([2]; conclusion from Tables 1 to 2): has chelating ability with iron
